In this assay the test system is Rsp5 HECT domain. Briefly: UbiFlu real-time fluorescence polarization kinetics with Rsp5 HECT domain. Format: biochemical, S. cerevisiae. As to conditions: in the presence of 8× SFlu. (In general: In fluorescence polarisation assays a small probe gives low polarisation when free and higher when bound to something large.)

Regarding `O=C1OC2(c3ccc(O)cc3Oc3cc(O)ccc32)c2ccc(NC(=S)NCCS)cc21` [SFlu], the “inhibition of UbiFlu consumption” value is given as “no inhibition”.

Values taken from US10590462B2, “Probes and assays for measuring E3 ligase activity” (NORTHWESTERN UNIVERSITY, priority 2014, dated 2020).
